Assay [1] concerns the target T1, human mAChR M1 (Homo sapiens, UniProt P11229).
T1 sequence (P11229 1-460): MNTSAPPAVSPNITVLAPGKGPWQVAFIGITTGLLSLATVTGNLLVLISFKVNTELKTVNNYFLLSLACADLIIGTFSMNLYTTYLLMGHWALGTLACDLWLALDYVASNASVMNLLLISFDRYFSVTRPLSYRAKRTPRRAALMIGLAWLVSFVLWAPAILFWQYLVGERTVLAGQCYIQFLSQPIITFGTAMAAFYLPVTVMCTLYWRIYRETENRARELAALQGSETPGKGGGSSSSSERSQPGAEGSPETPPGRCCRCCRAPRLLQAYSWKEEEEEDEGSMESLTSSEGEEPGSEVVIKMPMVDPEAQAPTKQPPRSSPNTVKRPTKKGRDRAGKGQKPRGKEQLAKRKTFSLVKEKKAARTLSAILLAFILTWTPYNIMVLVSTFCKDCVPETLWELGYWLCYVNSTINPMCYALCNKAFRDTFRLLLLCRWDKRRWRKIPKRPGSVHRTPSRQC
Nature of the assay: mAChR M1 cell-based functional assay (calcium mobilization), agonist activity upon compound addition alone. The following applies: CHO-K1 cells expressing hM1; for EC50: calcium mobilization upon compound addition, no acetylcholine; for Emax: compound alone, relative to the maximum for acetylcholine. An outline of the steps: (§1)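 Calcium mobilization in CHO-K1 cells stably expressing hM1, Fluo-4 loaded; 11-point 1:3 compound series added at 4 s, acetylcholine EC20 at 144 s, kinetic fluorescence ratio at 1 Hz. Agonism: rise on compound alone, Emax relative to acetylcholine maximum; PAM: potentiation of EC20 response; four-parameter logistic fits.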
On the technique in general: Calcium assays in cells follow changes in intracellular calcium, usually with a dye or a luminescent sensor.

Assay [2] concerns the target T1, human mAChR M1. As to the kind of experiment: mAChR M1 cell-based functional assay (calcium mobilization), PAM activity: increase in the EC20 acetylcholine response. The following applies: CHO-K1 cells expressing hM1; calcium flux (Fluo-4); potentiation of EC20 acetylcholine response. An outline of the steps: as §1

Broadly, the EC50 is the concentration needed to bring the measured effect to its halfway point. By Emax is commonly meant the size of the effect at its maximum, as opposed to the concentration needed. Take `Cc1nc(-c2ccc(Cc3cc(C(=O)N[C@H]4CCOC[C@@H]4O)nc(-n4cccn4)c3C)cc2)co1` [Compound 45, N-((3R,4S)-3-hydroxytetrahydro-2H-pyran-4-yl)-5-methyl-4-(4-(2-methyloxazol-4-yl)benzyl)-6-(1H-pyrazol-1-yl)picolinamide]: at human mAChR M1 [1], the EC50 is over 10 µM and the Emax is 8%. Moreover, at human mAChR M1 [2], the half-maximal effective concentration (EC50) is 0.863 µM and the maximal response (Emax) was 47%.

For the molecule `Cc1c(Cc2ccc(-c3ccn(C)n3)cc2)cc(C(=O)NC2CCOCC2)nc1-c1ccn(C)n1` [Compound 1, 5-methyl-6-(1-methyl-1H-pyrazol-3-yl)-4-(4-(1-methyl-1H-pyrazol-3-yl)benzyl)-N-(tetrahydro-2H-pyran-4-yl)picolinamide], at human mAChR M1 [1], the 50% effective concentration (EC50) is over 10 µM and the maximum response (Emax) was under 5%. Further, on human mAChR M1 [2], the 50% effective concentration (EC50) is 8.72 µM and the maximum response (Emax) is 85%.

As to `Cc1c(Cc2ccc(-n3cccn3)cc2)cc(C(=O)NC[C@H]2CCCO2)nc1-c1ccn(C)n1` [Compound 63, (R)-4-(4-(1H-pyrazol-1-yl)benzyl)-5-methyl-6-(1-methyl-1H-pyrazol-3-yl)-N-((tetrahydrofuran-2-yl)methyl)picolinamide], on human mAChR M1 [1], the concentration for a half-maximal effect (EC50) was over 10 µM and the maximal response (Emax) was under 5%. Also, the Emax on human mAChR M1 [2] stood at 57%.

`Cn1ccc(-c2ccc(Cc3cc(C(=O)N[C@H]4CC[C@@H]4O)nc(-n4cccn4)c3)cc2)n1` [Compound 32, N-((1S,2S)-2-hydroxycyclobutyl)-4-(4-(1-methyl-1H-pyrazol-3-yl)benzyl)-6-(1H-pyrazol-1-yl)picolinamide]: on human mAChR M1 [1], the EC50 was over 10 µM and the Emax was under 5%. For the same molecule, the maximal effect (Emax) on human mAChR M1 [2] is 46%.

Turning to `Cc1c(Cc2ccc(-n3cccn3)cc2)cc(C(=O)NC2CCOCC2)nc1-c1ccn(C)n1` [Compound 57, 4-(4-(1H-pyrazol-1-yl)benzyl)-5-methyl-6-(1-methyl-1H-pyrazol-3-yl)-N-(tetrahydro-2H-pyran-4-yl)picolinamide], at human mAChR M1 [1], the concentration for a half-maximal effect (EC50) was over 10 µM and the Emax is under 5%. Further, at human mAChR M1 [2], the concentration for a half-maximal effect (EC50) came to 5.7 µM and the maximal response (Emax) amounted to 81%.

Turning to `Cc1c(Cc2ccc(-c3ccn(C)n3)cc2)cc(C(=O)N[C@H]2CCOC[C@@H]2O)nc1-c1ccn(C)n1` [Compound 9, N-((3R,4S)-3-hydroxytetrahydro-2H-pyran-4-yl)-5-methyl-6-(1-methyl-1H-pyrazol-3-yl)-4-(4-(1-methyl-1H-pyrazol-3-yl)benzyl)picolinamide], at human mAChR M1 [1], the EC50 turned out to be 9.81 µM and the maximum response (Emax) worked out at 18%. On human mAChR M1 [2], the EC50 stood at 0.542 µM and the maximum response (Emax) turned out to be 86%.

Take `Cc1c(Cc2ccc(-c3ccn(C)n3)cc2)cc(C(=O)NC2CC3(COC3)C2)nc1-c1ccn(C)n1` [Compound 11, 5-methyl-6-(1-methyl-1H-pyrazol-3-yl)-4-(4-(1-methyl-1H-pyrazol-3-yl)benzyl)-N-(2-oxaspiro[3.3]heptan-6-yl)picolinamide]: the concentration for a half-maximal effect (EC50) at human mAChR M1 [1] was over 10 µM; on human mAChR M1 [2], 4.72 µM. In addition, the Emax on human mAChR M1 [1] is under 5%; at human mAChR M1 [2] it was 88%.

In the case of `Cc1nc(-c2ccc(Cc3cc(C(=O)N[C@H]4CCCC[C@@H]4O)nc(-n4cccn4)c3)cc2)co1` [Compound 22, N-((1S,2S)-2-hydroxycyclohexyl)-4-(4-(2-methyloxazol-4-yl)benzyl)-6-(1H-pyrazol-1-yl)picolinamide], the half-maximal effective concentration (EC50) at human mAChR M1 [1] is at least 10 µM; at human mAChR M1 [2], 0.634 µM. In addition, the Emax was found to be 11% on human mAChR M1 [1] and 86% at human mAChR M1 [2].

For `Cc1nc(-c2ccc(Cc3cc(C(=O)N[C@H]4CCCC[C@@H]4O)nc(-n4cccn4)c3C)cc2)co1` [Compound 48, N-((1S,2S)-2-hydroxycyclohexyl)-5-methyl-4-(4-(2-methyloxazol-4-yl)benzyl)-6-(1H-pyrazol-1-yl)picolinamide], at human mAChR M1 [1], the EC50 was 8.59 µM and the Emax stood at 10%. Also, on human mAChR M1 [2], the EC50 worked out at 0.832 µM and the Emax was found to be 59%.

With `Cc1c(Cc2ccc(-c3cnn(C)c3)nc2)cc(C(=O)N[C@H]2CCC[C@@H]2O)nc1-n1cccn1` [Compound 53, N-((1S,2S)-2-hydroxycyclopentyl)-5-methyl-4-((6-(1-methyl-1H-pyrazol-4-yl)pyridin-3-yl)methyl)-6-(1H-pyrazol-1-yl)picolinamide], on human mAChR M1 [1], the concentration giving a half-maximal response (EC50) was over 10 µM and the maximal response (Emax) is 5%. On human mAChR M1 [2], the EC50 turned out to be 3.96 µM and the maximal response (Emax) stood at 75%.

Turning to `Cc1nc(-c2ccc(Cc3cc(C(=O)N[C@H]4CCOC[C@@H]4O)nc(-n4cccn4)c3)cc2)co1` [Compound 19, N-((3R,4S)-3-hydroxytetrahydro-2H-pyran-4-yl)-4-(4-(2-methyloxazol-4-yl)benzyl)-6-(1H-pyrazol-1-yl)picolinamide], at human mAChR M1 [1], the concentration giving a half-maximal response (EC50) is over 10 µM and the maximal effect (Emax) is under 5%. Moreover, at human mAChR M1 [2], the half-maximal effective concentration (EC50) stood at 1.97 µM and the Emax was found to be 88%.

`Cc1c(Cc2ccc(-n3cccn3)cc2)cc(C(=O)NC2CCOCC2(C)C)nc1-c1ccn(C)n1` (stereo not shown) [Compound 64, 4-(4-(1H-pyrazol-1-yl)benzyl)-N-(3,3-dimethyltetrahydro-2H-pyran-4-yl)-5-methyl-6-(1-methyl-1H-pyrazol-3-yl)picolinamide]: at human mAChR M1 [1], the EC50 was over 10 µM and the Emax was under 5%. Further, on human mAChR M1 [2], the EC50 came out at 2.89 µM and the Emax is 91%.

Take `Cc1c(Cc2ccc(-c3ccn(C)n3)cc2)cc(C(=O)N[C@H]2CCOC[C@@H]2O)nc1-n1cccn1` [Compound 2, N-((3R,4S)-3-hydroxytetrahydro-2H-pyran-4-yl)-5-methyl-4-(4-(1-methyl-1H-pyrazol-3-yl)benzyl)-6-(1H-pyrazol-1-yl)picolinamide]: the figures for the EC50 on human mAChR M1 [1] and at human mAChR M1 [2] were 7.15 µM and 0.317 µM, respectively. Moreover, the maximum response (Emax) is 25% on human mAChR M1 [1] and 78% at human mAChR M1 [2].

For `Cc1c(Cc2ccc(-c3ccn(C)n3)cc2)cc(C(=O)NC2CCOCC2(C)C)nc1-c1ccn(C)n1` (stereo not shown) [Compound 17, N-(3,3-dimethyltetrahydro-2H-pyran-4-yl)-5-methyl-6-(1-methyl-1H-pyrazol-3-yl)-4-(4-(1-methyl-1H-pyrazol-3-yl)benzyl)picolinamide], the figures for the half-maximal effective concentration (EC50) on human mAChR M1 [1] and at human mAChR M1 [2] were over 10 µM and 2.26 µM, respectively. For the same molecule, the results for the Emax at human mAChR M1 [1] and at human mAChR M1 [2] were under 5% and 86%, respectively.

On to `Cc1c(Cc2ccc(-c3ccn(C)n3)nc2)cc(C(=O)N[C@H]2CCC[C@@H]2O)nc1-n1cccn1` [Compound 52, N-((1S,2S)-2-hydroxycyclopentyl)-5-methyl-4-((6-(1-methyl-1H-pyrazol-3-yl)pyridin-3-yl)methyl)-6-(1H-pyrazol-1-yl)picolinamide], for which, at human mAChR M1 [1], the EC50 is over 10 µM and the Emax came to 9%. In addition, on human mAChR M1 [2], the 50% effective concentration (EC50) came to 5.03 µM and the maximal response (Emax) was 84%.

With `Cc1c(Cc2ccc(-c3ccn(C)n3)cc2)cc(C(=O)NC2CCOCC2)nc1-n1cccn1` [Compound 42, 5-methyl-4-(4-(1-methyl-1H-pyrazol-3-yl)benzyl)-6-(1H-pyrazol-1-yl)-N-(tetrahydro-2H-pyran-4-yl)picolinamide], the EC50 at human mAChR M1 [1] was over 10 µM. The Emax at human mAChR M1 [1] was under 5%; at human mAChR M1 [2] it was 83%.

For the molecule `Cc1c(Cc2ccc(-c3ccn(C)n3)cc2)cc(C(=O)N[C@H]2CCCC[C@@H]2O)nc1-n1cccn1` [Compound 41, N-((1S,2S)-2-hydroxycyclohexyl)-5-methyl-4-(4-(1-methyl-1H-pyrazol-3-yl)benzyl)-6-(1H-pyrazol-1-yl)picolinamide], the 50% effective concentration (EC50) on human mAChR M1 [1] was determined as 7.78 µM; on human mAChR M1 [2] it was 0.307 µM. Besides, the Emax stood at 26% on human mAChR M1 [1] and 79% at human mAChR M1 [2].

In the case of `Cn1ccc(-c2ccc(Cc3cc(C(=O)N[C@H]4CCOC[C@@H]4O)nc(-n4cccn4)c3)cc2)n1` [Compound 28, N-((3R,4S)-3-hydroxytetrahydro-2H-pyran-4-yl)-4-(4-(1-methyl-1H-pyrazol-3-yl)benzyl)-6-(1H-pyrazol-1-yl)picolinamide], on human mAChR M1 [1], the EC50 was over 10 µM and the Emax is 7%. For the same molecule, at human mAChR M1 [2], the half-maximal effective concentration (EC50) came to 1.07 µM and the maximum response (Emax) is 78%.

As to `Cc1c(Cc2ccc(-c3ccn(C)n3)cc2)cc(C(=O)N[C@H]2CCC[C@@H]2O)nc1-n1cccn1` [Compound 43, N-((1S,2S)-2-hydroxycyclopentyl)-5-methyl-4-(4-(1-methyl-1H-pyrazol-3-yl)benzyl)-6-(1H-pyrazol-1-yl)picolinamide], on human mAChR M1 [1], the half-maximal effective concentration (EC50) is at least 10 µM and the maximal effect (Emax) was 14%. Further, on human mAChR M1 [2], the EC50 is 1.3 µM and the maximal effect (Emax) worked out at 85%.

`Cn1cc(-c2ccc(Cc3cc(C(=O)NC4CC5(COC5)C4)nc(-c4ccn(C)n4)c3)cn2)cn1` [Compound 5, 6-(1-methyl-1H-pyrazol-3-yl)-4-((6-(1-methyl-1H-pyrazol-4-yl)pyridin-3-yl)methyl)-N-(2-oxaspiro[3.3]heptan-6-yl)picolinamide]: on human mAChR M1 [1], the concentration for a half-maximal effect (EC50) is over 10 µM and the maximum response (Emax) was under 5%. Besides, the Emax on human mAChR M1 [2] turned out to be 52%.

Values taken from patent publication US11851406B2, “Positive allosteric modulators of the muscarinic acetylcholine receptor M1” (Vanderbilt University, priority 2018, dated 2023).
